How the values were obtained:
[1] = tested on: cavy cough caused by citric acid; test: Cough reverberation of cavy caused by citric acid; type: in vivo; conditions: 10 mg · kg^−1, once daily 3 days
Description: Put cavies into a volume marked box to stabilize for 1 min, and then atomize 15% citric acid for 2 min by ultrasonic nebulizer. From then on, select the cavies that cough more than 10 times in minutes. Divide the selected cavies into 5 groups in terms of their cough times, and then treat them respectively with testing medicine sample CVFS 0.3 g/kg, 0.9 g/kg, 2.7 g/kg, positive control codeine phosphate (10 mg/kg), and the negative control group is administered by intragater method with 10 ml·kg^−1 physiological saline solution (i.g), one time every day, altogether 3 days. 1 hour after the last administration of medicine, induce cough by above method and count the cough times in 10 min from the beginning of atomization.

[2] = tested on: sensitized cavies attacked by antigen (egg albumin); test: Example 4 polysaccharide: inflammatory cells in bronchial lung lavage solution of sensitized cavies after antigen attack (Table 7); type: in vivo, cavy; conditions: 0.5 mg/kg
Description: Take 20 g fermentation mycelial powder, add in 400 mL distilled water, boil and extract for 30 min. After filtration, add another 200 mL distilled water to the residue, then repeat the same steps. Mix the filtrate of the two times and add in 100 mL culture supernatant fluid. Then put the mixture into dialysis bag of retention molecular weight 10,000 Dalton and dialyze 10 mM pH6.0 buffer solution of HAc-NaAc 2000 mL for three days to remove small molecular substances in the solution. Change the penetrated liquid 1 time each day.
Then concentrate the residue to 100 mL. On animal test, the polysaccharide affects inflammatory cells in bronchial lung lavage solution of sensitized cavies after being attacked by antigen. (The results are described in Table 7.) 2% egg albumin gel solution is used to cause allergy and is subcutaneous injected (0.05 mL each part) in ten parts of two retral soles, groin, waist, back, neck and armpits of each cavy. 0.5 mL 2% egg albumin gel solution is intraperitoneal injected at the same time. The samples are injected since the tenth day after allergy has been caused.

[3] = tested on: sensitized cavies attacked by antigen (egg albumin); test: Inflammatory cells in bronchial lung lavage solution of sensitized cavies after antigen attack (Table 3); type: in vivo, cavy; conditions: 0.5 mg/kg Ip, 10 days
Description: 2% egg albumin gel solution is used to cause allergy and is subcutaneously injected (0.05 mL each part) in ten parts of two retral soles, groin, waist, back, neck and armpits of each cavy. 0.5 mL 2% egg albumin gel solution is intraperitoneally injected at the same time. The medicine samples are injected since the tenth day after allergy has been caused. The testing samples of A2, B2, C2 or physiological saline solution (NS, 0.5 mL/kg) or dexamethasone (DXM, […]) are intraperitoneal injected respectively; A1, B1 (5 g/kg), C1 (2.5 g/kg) are administered by intragaster. The above testing samples are administered 10 days. A1: fermentation mycelium powder; […]: culture supernatant concentrated fluid; C1: sporophore powder; A2: water extract of fermentation mycelium; B2: fermentation concentrated fluid; C2: water extract of sporophore powder; dexamethasone sodium phosphate. Asthma as a chronic airway inflammatory disease is characterized by significant increase of eosinophils of bronchus and lung. Eosinophils can release tens of inflammatory substances, such as cytokines, leukotriene and prostapar etc., which may cause inflammation, edema, injury and thickening of airway, make narrow airway and therefore lead to dyspnea. Thus, eosinophil is considered as a target of screening drugs for relieving cough at present. The medicine, which can inhibit inflammation of airway eosinophils, would probably be used for preventing and treating asthma.

[4] = tested on: sensitized cavies attacked by antigen (egg albumin); test: Elementarily separated substances: inflammatory cells in bronchial lung lavage solution of sensitized cavies after antigen attack (Table 5); type: in vivo, cavy; conditions: 0.5 mg/kg intraperitoneal, 10 days
Description: 2% egg albumin gel solution is used to cause allergy. The medicine samples are administered since the tenth day after allergy has been caused. The cavies are administered by introgaster method with this tested medicine sample or with physiological saline solution (10 ml/kg); or administered by intraperitoneal method with dexamethasone (0.5 mg/kg). All of the testing medicine samples are administered 10 days. A: total polysaccharide extracted from fermentation product; B: total alkaloids extracted from fermentation product; C: volatile oil extracted from fermentation product; D: organic acid extracted from fermentation product; E: water extract of fermentation product; positive control: dexamethasone.

[5] = tested on: sensitized cavies attacked by antigen (1% egg albumin); test: Pulmonary mechanical function (lung resistance RL) of sensitized cavies after antigen attack; type: in vivo, cavy; conditions: 7 mg/kg×1 d; P<0.05˜0.01 in all time phases during 10 min after antigen attack
Description: Suppose airway resistance (RL) is 1005 before being attacked by antigen. Compared with the model group: *P<0.05, **P <0.001, ***P<0.001.
Each cavy is sensitized by being injected 10 mg egg albumin into the muscles of its crus. 3-4 weeks later, antigen attack (1% egg albumin) is given and the caused changes of lung resistance (RL) are observed to evaluate the activity of the samples.

## COc1ccc2c3c1O[C@H]1[C@@H](O)C=C[C@H]4[C@@H](C2)N(C)CC[C@@]341 [Codeine phosphate, codeine phosphate]
[1]
  Cough times (in 10 min): 9.4 ± 8.0
  Inhibition of cough times %: 67.4%

## C[C@@H]1C[C@H]2[C@@H]3CCC4=CC(=O)C=C[C@]4(C)[C@@]3(F)[C@@H](O)C[C@]2(C)[C@@]1(O)C(=O)CO [DXM, dexamethasone]
[2]
  Eosinophil: 0.00 ± 0.00 %
  Leukocyte counts: 330.5 ± 254.3 Number/mm3
  Lymphocyte: 87.70 ± 18.73 %
  Neutrophil: 12.30 ± 18.74%
[3]
  Eosinophils: 2.60 ± 3.9 %
  Leukocyte total number: 241.6 ± 179.2 Number/mm^3
  Lymphocyte: 68.4 ± 18.4 %
  Neutrophil: 28.9 ± 16.6%
[4]
  Eosinophils: 0.00 ± 0.00 %
  Leukocyte total number: 330.5 ± 254.3 Number/mm3
  Lymphocyte: 87.70 ± 18.73 %
  Neutrophil: 12.30 ± 18.74%

## CC(C)(C)NCC(O)c1ccc(O)c(CO)c1 (stereo not drawn) [salbutamol]
[5]
  inhibition of increase of lung resistance (RL) caused by antigen attack: evident inhibition
